From patent publication US20260132125A1, “PESTICIDALLY ACTIVE FUSED BICYCLIC HETEROAROMATIC COMPOUNDS” (priority 2022, published 2026)

Columns and labels:
Format in all cases: in vivo
Diabrotica balteata = assay: Example B2: activity against Diabrotica balteata (corn root worm), maize sprouts; conditions: 96 h, L2 larvae, 4 days after infestation, read-out: effect in at least one of the two categories (mortality or growth inhibition)
Procedure: Maize sprouts placed onto an agar layer in 24-well microtiter plates were treated with aqueous test solutions prepared from 10′000 ppm DMSO stock solutions by spraying. After drying, the plates were infested with L2 larvae (6 to 10 per well). The samples were assessed for mortality and growth inhibition in comparison to untreated samples 4 days after infestation. The following compounds gave an effect of at least 80% in at least one of the two categories (mortality or growth inhibition) at an application rate of 200 ppm: P1, P2, P3, P4, P5, P7, P8, P9, P10, P11, P12, P13, P14, P15, P16, P17, P18, P19, P20, P21, P22, P23, P24, P25, P26, P27, P28, P29, P30, P31, P33, P34, P35, P36, P37, P38, P39, P40, P41, P42, P43, P45, P46, P47, P48, P49, P50, P51, P52, P53, P55, P57, P58, P59, P60, P61, P62, P63, P64, P65, P66, P67, P69, P71, P75, P81, P82, P83.

Myzus persicae = assay: Example B4: activity against Myzus persicae (green peach aphid), intrinsic activity; conditions: 120 h, test rate 12 ppm, 5 days after infestation
Procedure: Test compounds prepared from 10′000 ppm DMSO stock solutions were applied by pipette into 24-well microtiter plates and mixed with sucrose solution. The plates were closed with a stretched Parafilm. A plastic stencil with 24 holes was placed onto the plate and infested pea seedlings were placed directly on the Parafilm. The infested plate was closed with a gel blotting paper and another plastic stencil and then turned upside down. The samples were assessed for mortality 5 days after infestation.

Spodoptera littoralis = assay: Example B6: activity against Spodoptera littoralis (Egyptian cotton leaf worm), cotton leaf discs; conditions: foliar, 72 h, 200 ppm, L1 larvae, 3 days after infestation, read-out: control (at least one of mortality, anti-feedant effect, growth inhibition)
Procedure: Cotton leaf discs were placed onto agar in 24-well microtiter plates and sprayed with aqueous test solutions prepared from 10′000 ppm DMSO stock solutions. After drying the leaf discs were infested with five L1 larvae. The samples were assessed for mortality, anti-feeding effect, and growth inhibition in comparison to untreated samples 3 days after infestation. Control of Spodoptera littoralis by a test sample is given when at least one of the categories mortality, anti-feedant effect, and growth inhibition is higher than the untreated sample.

Chilo suppressalis = assay: Example B1: activity against Chilo suppressalis (striped rice stemborer), artificial diet; conditions: 144 h, 200 ppm, L2 larvae, 6 days after infestation, read-out: control (at least one of mortality, anti-feedant effect, growth inhibition)
Procedure: 24-well microtiter plates with artificial diet were treated with aqueous test solutions prepared from 10′000 ppm DMSO stock solutions by pipetting. After drying, the plates were infested with L2 larvae (6-8 per well). The samples were assessed for mortality, anti-feeding effect, and growth inhibition in comparison to untreated samples 6 days after infestation. Control of Chilo suppressalis by a test sample is given when at least one of the categories mortality, anti-feedant effect, and growth inhibition is higher than the untreated sample.

Plutella xylostella = assay: Example B5: activity against Plutella xylostella (diamond back moth), artificial diet, eggs; conditions: 192 h, 8 days after infestation, read-out: effect in at least one of the two categories (mortality or growth inhibition)
Procedure: 24-well microtiter plates with artificial diet were treated with aqueous test solutions prepared from 10′000 ppm DMSO stock solutions by pipetting. After drying, Plutella eggs were pipetted through a plastic stencil onto a gel blotting paper and the plate was closed with it. The samples were assessed for mortality and growth inhibition in comparison to untreated samples 8 days after infestation. The following compounds gave an effect of at least 80% in at least one of the two categories (mortality or growth inhibition) at an application rate of 200 ppm: P1, P2, P3, P4, P5, P6, P7, P8, P9, P10, P11, P12, P13, P14, P15, P16, P17, P18, P19, P20, P21, P22, P23, P24, P25, P26, P27, P28, P29, P30, P31, P32, P33, P34, P35, P36, P37, P38, P39, P40, P41, P42, P43, P44, P45, P46, P47, P48, P49, P50, P51, P52, P53, P54, P55, P57, P58, P59, P60, P61, P62, P63, P64, P65, P66, P67, P69, P70, P71, P72, P73, P74, P75, P77, P78, P81, P82, P83.

C[C@H](Nc1ncnc2c(C(F)(F)F)cc(Cl)cc12)c1ncnn1-c1cc(C(=O)NO)ncn1 [Compound P26, 6-[5-[(1S)-1-[[6-chloro-8-(trifluoromethyl)quinazolin-4-yl]amino]ethyl]-1,2,4-triazol-1-yl]pyrimidine-4-carbohydroxamic acid]
≥ 80%: percent effect (mortality or growth inhibition) at 200 ppm (Diabrotica balteata) | mortality at 12 ppm (Myzus persicae) | percent control (mortality, anti-feedant effect or growth inhibition) at 200 ppm (Spodoptera littoralis) | percent control (mortality, anti-feedant effect or growth inhibition) at 200 ppm (Chilo suppressalis) | percent effect (mortality or growth inhibition) at 200 ppm (Plutella xylostella)

C[C@H](Nc1ncnc2c(Cl)cc(I)cc12)c1ncnn1-c1cc(C#N)ncn1 [Compound P18, 6-[5-[(1S)-1-[(8-chloro-6-iodo-quinazolin-4-yl)amino]ethyl]-1,2,4-triazol-1-yl]pyrimidine-4-carbonitrile]
≥ 80%: percent effect (mortality or growth inhibition) at 200 ppm (Diabrotica balteata) | mortality at 12 ppm (Myzus persicae) | percent control (mortality, anti-feedant effect or growth inhibition) at 200 ppm (Spodoptera littoralis) | percent control (mortality, anti-feedant effect or growth inhibition) at 200 ppm (Chilo suppressalis) | percent effect (mortality or growth inhibition) at 200 ppm (Plutella xylostella)

C[C@H](Nc1ncnc2c(I)cc(Cl)cc12)c1ncnn1-c1cc(C#N)ncn1 [Compound P40, 6-[5-[(1S)-1-[(6-chloro-8-iodo-quinazolin-4-yl)amino]ethyl]-1,2,4-triazol-1-yl]pyrimidine-4-carbonitrile]
≥ 80%: percent effect (mortality or growth inhibition) at 200 ppm (Diabrotica balteata) | mortality at 12 ppm (Myzus persicae) | percent control (mortality, anti-feedant effect or growth inhibition) at 200 ppm (Spodoptera littoralis) | percent control (mortality, anti-feedant effect or growth inhibition) at 200 ppm (Chilo suppressalis) | percent effect (mortality or growth inhibition) at 200 ppm (Plutella xylostella)

C[C@H](Nc1ncnc2c(C(F)(F)F)cc(Cl)cc12)c1ncnn1-c1cc(C(=O)NC2CS(=O)(=O)C2)ncn1 [Compound P24, 6-[5-[(1S)-1-[[6-chloro-8-(trifluoromethyl)quinazolin-4-yl]amino]ethyl]-1,2,4-triazol-1-yl]-N-(1,1-dioxothietan-3-yl)pyrimidine-4-carboxamide]
≥ 80%: percent effect (mortality or growth inhibition) at 200 ppm (Diabrotica balteata) | mortality at 12 ppm (Myzus persicae) | percent control (mortality, anti-feedant effect or growth inhibition) at 200 ppm (Spodoptera littoralis) | percent control (mortality, anti-feedant effect or growth inhibition) at 200 ppm (Chilo suppressalis) | percent effect (mortality or growth inhibition) at 200 ppm (Plutella xylostella)

CNC(=O)c1cc(-n2ncnc2[C@H](C)Nc2ncnc3c(Br)cc(Br)cc23)ncn1 [Compound P12, 6-[5-[(1S)-1-[(6,8-dibromoquinazolin-4-yl)amino]ethyl]-1,2,4-triazol-1-yl]-N-methyl-pyrimidine-4-carboxamide]
≥ 80%: percent effect (mortality or growth inhibition) at 200 ppm (Diabrotica balteata) | mortality at 12 ppm (Myzus persicae) | percent control (mortality, anti-feedant effect or growth inhibition) at 200 ppm (Spodoptera littoralis) | percent control (mortality, anti-feedant effect or growth inhibition) at 200 ppm (Chilo suppressalis) | percent effect (mortality or growth inhibition) at 200 ppm (Plutella xylostella)

CNC(=O)c1cc(-n2ncnc2[C@H](C)N(C)c2ncnc3c(Br)cc(Br)cc23)ncn1 [Compound P11, 6-[5-[(1S)-1-[(6,8-dibromoquinazolin-4-yl)-methyl-amino]ethyl]-1,2,4-triazol-1-yl]-N-methyl-pyrimidine-4-carboxamide]
≥ 80%: percent effect (mortality or growth inhibition) at 200 ppm (Diabrotica balteata) | mortality at 12 ppm (Myzus persicae) | percent control (mortality, anti-feedant effect or growth inhibition) at 200 ppm (Spodoptera littoralis) | percent control (mortality, anti-feedant effect or growth inhibition) at 200 ppm (Chilo suppressalis) | percent effect (mortality or growth inhibition) at 200 ppm (Plutella xylostella)

C[C@H](Nc1ncnc2c(C(F)(F)F)cc(Cl)cc12)c1ncnn1-c1cc(C(=O)N(C)O)ncn1 [Compound P46, 6-[5-[(1S)-1-[[6-chloro-8-(trifluoromethyl)quinazolin-4-yl]amino]ethyl]-1,2,4-triazol-1-yl]-N-hydroxy-N-methyl-pyrimidine-4-carboxamide]
≥ 80%: percent effect (mortality or growth inhibition) at 200 ppm (Diabrotica balteata) | mortality at 12 ppm (Myzus persicae) | percent control (mortality, anti-feedant effect or growth inhibition) at 200 ppm (Spodoptera littoralis) | percent control (mortality, anti-feedant effect or growth inhibition) at 200 ppm (Chilo suppressalis) | percent effect (mortality or growth inhibition) at 200 ppm (Plutella xylostella)

CNC(=O)c1cc(-n2ncnc2[C@H](C)N(C)c2ncnc3c(Cl)cc(I)cc23)ncn1 [Compound P34, 6-[5-[(1S)-1-[(8-chloro-6-iodo-quinazolin-4-yl)-methyl-amino]ethyl]-1,2,4-triazol-1-yl]-N-methyl-pyrimidine-4-carboxamide]
≥ 80%: percent effect (mortality or growth inhibition) at 200 ppm (Diabrotica balteata) | mortality at 12 ppm (Myzus persicae) | percent control (mortality, anti-feedant effect or growth inhibition) at 200 ppm (Spodoptera littoralis) | percent control (mortality, anti-feedant effect or growth inhibition) at 200 ppm (Chilo suppressalis) | percent effect (mortality or growth inhibition) at 200 ppm (Plutella xylostella)

C[C@@H](c1ncnn1-c1cc(C(=O)N(C)C2CC2)ncn1)N(C)c1ncnc2c(C(F)(F)F)cc(Cl)cc12 [Compound P81, 6-[5-[(1S)-1-[[6-chloro-8-(trifluoromethyl)quinazolin-4-yl]-methyl-amino]ethyl]-1,2,4-triazol-1-yl]-N-cyclopropyl-N-methyl-pyrimidine-4-carboxamide]
≥ 80%: percent effect (mortality or growth inhibition) at 200 ppm (Diabrotica balteata) | mortality at 12 ppm (Myzus persicae) | percent control (mortality, anti-feedant effect or growth inhibition) at 200 ppm (Spodoptera littoralis) | percent control (mortality, anti-feedant effect or growth inhibition) at 200 ppm (Chilo suppressalis) | percent effect (mortality or growth inhibition) at 200 ppm (Plutella xylostella)

C[C@@H](c1ncnn1-c1cc(C(=O)N(C)C)ncn1)N(C)c1ncnc2c(I)cc(Cl)cc12 [Compound P66, 6-[5-[(1S)-1-[(6-chloro-8-iodo-quinazolin-4-yl)-methyl-amino]ethyl]-1,2,4-triazol-1-yl]-N,N-dimethyl-pyrimidine-4-carboxamide]
≥ 80%: percent effect (mortality or growth inhibition) at 200 ppm (Diabrotica balteata) | mortality at 12 ppm (Myzus persicae) | percent control (mortality, anti-feedant effect or growth inhibition) at 200 ppm (Spodoptera littoralis) | percent control (mortality, anti-feedant effect or growth inhibition) at 200 ppm (Chilo suppressalis) | percent effect (mortality or growth inhibition) at 200 ppm (Plutella xylostella)

C[C@@H](c1ncnn1-c1cc(C(N)=O)ncn1)N(C)c1ncnc2c(Cl)cc(I)cc12 [Compound P49, 6-[5-[(1S)-1-[(8-chloro-6-iodo-quinazolin-4-yl)-methyl-amino]ethyl]-1,2,4-triazol-1-yl]pyrimidine-4-carboxamide]
≥ 80%: percent effect (mortality or growth inhibition) at 200 ppm (Diabrotica balteata) | mortality at 12 ppm (Myzus persicae) | percent control (mortality, anti-feedant effect or growth inhibition) at 200 ppm (Spodoptera littoralis) | percent control (mortality, anti-feedant effect or growth inhibition) at 200 ppm (Chilo suppressalis) | percent effect (mortality or growth inhibition) at 200 ppm (Plutella xylostella)
